Laboratory results: patent publication US6355799B1, “Substituted benzene compounds, process for their preparation, and herbicidal and defoliant compositions containing them” (ISK Americas Incorporated, priority 1997, dated 2002)

Assays:
Assay type in all cases: in vivo
[1] = test system: field corn (Zea mays L., var. Dekalb 535, CORN); assay: Pre-emerge test, crop safety; conditions: pre-emerge; for Pre-emerge Herbicidal Activity CORN: crop damage, phytotoxicity rating 0-100 at 14 days after application; for phytotoxicity rating CORN (crop damage): 14 days after application, scale 0-100
Summary of the method: (§1)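 Visual ratings on a 0-100 scale (0 no damage, 100 all plants dead) were taken at 14 days after treatment. Rates of 15-1000 g ai/ha in acetone, 187 l/ha, were sprayed onto soil one day after planting (pre-emerge) or onto 2-3 leaf plants with 0.25% v/v surfactant (post-emerge).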

[2] = test system: upland rice (Oryza sp., var. Tebonnet, RICE); assay: Pre-emerge test, crop safety; conditions: pre-emerge; for Pre-emerge Herbicidal Activity RICE: crop damage, phytotoxicity rating 0-100 at 14 days after application; for phytotoxicity rating RICE (crop damage): 14 days after application, scale 0-100
Summary of the method: as §1

[3] = test system: velvetleaf (Abutilon theophrasti, ABUTH); assay: Post-emerge test, greenhouse herbicide activity screening; conditions: post-emerge; for Post-emerge Herbicidal Activity ABUTH: phytotoxicity rating 0-100 at 14 days after application; for ABUTH phytotoxicity rating: 14 days after application, rating scale 0-100
Summary of the method: (§2)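 Applied at 15–1000 g ai/ha from acetone in 187 l/ha spray volume. Post-emergence applications included 0.25% v/v non-ionic surfactant and reached plants sown 8–21 days before. Pre-emergence applications were incorporated by surface watering. Efficacy or crop damage was rated on a 0–100 scale after 14 days.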

[4] = test system: barnyardgrass (Echinochloa crus-galli, ECHCG); assay: as above; conditions: post-emerge; for Post-emerge Herbicidal Activity ECHCG: phytotoxicity rating 0-100 at 14 days after application; for ECHCG phytotoxicity rating: 14 days after application, rating scale 0-100
Summary of the method: as §2

[5] = test system: redroot pigweed (Amaranthus retroflexus, AMARE); assay: as above; conditions: post-emerge; for Post-emerge Herbicidal Activity AMARE: phytotoxicity rating 0-100 at 14 days after application; for AMARE phytotoxicity rating: 14 days after application, rating scale 0-100
Summary of the method: as §2

[6] = test system: ivyleaf morningglory (Ipomoea hederacea, IPOHE); assay: as above; conditions: post-emerge; for Post-emerge Herbicidal Activity IPOHE: phytotoxicity rating 0-100 at 14 days after application; for IPOHE phytotoxicity rating: 14 days after application, rating scale 0-100
Summary of the method: as §2

[7] = test system: sicklepod (Cassia obtusifolia, CASOB); assay: as above; conditions: post-emerge; for Post-emerge Herbicidal Activity CASOB: phytotoxicity rating 0-100 at 14 days after application; for CASOB phytotoxicity rating: 14 days after application, rating scale 0-100
Summary of the method: as §2

[8] = test system: green foxtail (Setaria viridis, SETVI); assay: as above; conditions: post-emerge; for Post-emerge Herbicidal Activity SETVI: phytotoxicity rating 0-100 at 14 days after application; for SETVI phytotoxicity rating: 14 days after application, rating scale 0-100
Summary of the method: as §2

[9] = test system: large crabgrass (Digitaria sanguinalis, DIGSA); assay: as above; conditions: post-emerge; for Post-emerge Herbicidal Activity DIGSA: phytotoxicity rating 0-100 at 14 days after application; for DIGSA phytotoxicity rating: 14 days after application, rating scale 0-100
Summary of the method: as §2

[10] = test system: lambsquarters (Chenopodium album, CHEAL); assay: as above; conditions: post-emerge; for Post-emerge Herbicidal Activity CHEAL: phytotoxicity rating 0-100 at 14 days after application; for CHEAL phytotoxicity rating: 14 days after application, rating scale 0-100
Summary of the method: as §2

[11] = test system: field corn (Zea mays L., var. Dekalb 535, CORN); assay: Post-emerge test, crop safety; conditions: post-emerge; for Post-emerge Herbicidal Activity CORN: crop damage rating 0-100 at 14 days after application; for CORN phytotoxicity rating (crop damage): 14 days after application, rating scale 0-100
Summary of the method: (§3)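 Rating: 0–100 visual injury, 14 DAA. Application: acetone, 187 l/ha, 15–1000 g ai/ha, flat-fan track sprayer with nozzle 40–45 cm above soil or canopy. Post-emerge runs used 0.25% v/v surfactant on 2–3 leaf plants.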

[12] = test system: upland rice (Oryza sp., var. Tebonnet, RICE); assay: Post-emerge test, crop safety; conditions: post-emerge; for Post-emerge Herbicidal Activity RICE: crop damage rating 0-100 at 14 days after application; for RICE phytotoxicity rating (crop damage): 14 days after application, rating scale 0-100
Summary of the method: as §3

[13] = test system: redroot pigweed (Amaranthus retroflexus, AMARE); assay: Pre-emerge test, greenhouse herbicide activity screening; conditions: pre-emerge; for Pre-emerge Herbicidal Activity AMARE: phytotoxicity rating 0-100 at 14 days after application; for phytotoxicity rating AMARE: 14 days after application, scale 0-100
Summary of the method: as §1

[14] = test system: velvetleaf (Abutilon theophrasti, ABUTH); assay: as above; conditions: pre-emerge; for Pre-emerge Herbicidal Activity ABUTH: phytotoxicity rating 0-100 at 14 days after application; for phytotoxicity rating ABUTH: 14 days after application, scale 0-100
Summary of the method: (§4)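 Compounds in acetone were track-sprayed at 15–1000 g ai/ha: pre-emergence onto soil sown the previous day, then top-watered to incorporate and later bottom-watered; post-emergence onto 2–3 leaf plants with 0.25% v/v surfactant, bottom-watered only. Ratings on a 0–100 phytotoxicity scale were taken at day 14.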

[15] = test system: barnyardgrass (Echinochloa crus-galli, ECHCG); assay: as above; conditions: pre-emerge; for Pre-emerge Herbicidal Activity ECHCG: phytotoxicity rating 0-100 at 14 days after application; for phytotoxicity rating ECHCG: 14 days after application, scale 0-100
Summary of the method: as §4

[16] = test system: ivyleaf morningglory (Ipomoea hederacea, IPOHE); assay: as above; conditions: pre-emerge; for Pre-emerge Herbicidal Activity IPOHE: phytotoxicity rating 0-100 at 14 days after application; for phytotoxicity rating IPOHE: 14 days after application, scale 0-100
Summary of the method: as §4

[17] = test system: johnsongrass (Sorghum halepense, SORHA); assay: as above; conditions: pre-emerge; for Pre-emerge Herbicidal Activity SORHA: phytotoxicity rating 0-100 at 14 days after application; for phytotoxicity rating SORHA: 14 days after application, scale 0-100
Summary of the method: as §4

[18] = test system: sicklepod (Cassia obtusifolia, CASOB); assay: as above; conditions: pre-emerge; for Pre-emerge Herbicidal Activity CASOB: phytotoxicity rating 0-100 at 14 days after application; for phytotoxicity rating CASOB: 14 days after application, scale 0-100
Summary of the method: as §4

[19] = test system: green foxtail (Setaria viridis, SETVI); assay: as above; conditions: pre-emerge; for Pre-emerge Herbicidal Activity SETVI: phytotoxicity rating 0-100 at 14 days after application; for phytotoxicity rating SETVI: 14 days after application, scale 0-100
Summary of the method: as §4

[20] = test system: large crabgrass (Digitaria sanguinalis, DIGSA); assay: as above; conditions: pre-emerge; for Pre-emerge Herbicidal Activity DIGSA: phytotoxicity rating 0-100 at 14 days after application; for phytotoxicity rating DIGSA: 14 days after application, scale 0-100
Summary of the method: as §4

[21] = test system: lambsquarters (Chenopodium album, CHEAL); assay: as above; conditions: pre-emerge; for Pre-emerge Herbicidal Activity CHEAL: phytotoxicity rating 0-100 at 14 days after application; for phytotoxicity rating CHEAL: 14 days after application, scale 0-100
Summary of the method: as §4

COc1c(Cl)cc(F)c(-n2nnn(CCCF)c2=O)c1NC(=O)COCc1ccccc1 [Compound 5-28]
Pre-emerge Herbicidal Activity CORN ([1]; rate 63 g ai/ha): 10 | Pre-emerge Herbicidal Activity CORN ([1]; rate 250 g ai/ha): 20 | Pre-emerge Herbicidal Activity RICE ([2]; rate 63 g ai/ha): 30 | Pre-emerge Herbicidal Activity RICE ([2]; rate 250 g ai/ha): 60 | Post-emerge Herbicidal Activity ABUTH ([3]; 63 g ai/ha): 100 | Post-emerge Herbicidal Activity ABUTH ([3]; 250 g ai/ha): 100 | Post-emerge Herbicidal Activity ECHCG ([4]; 63 g ai/ha): 0 | Post-emerge Herbicidal Activity ECHCG ([4]; 250 g ai/ha): 50 | Post-emerge Herbicidal Activity AMARE ([5]; 63 g ai/ha): 100 | Post-emerge Herbicidal Activity AMARE ([5]; 250 g ai/ha): 100 | Post-emerge Herbicidal Activity IPOHE ([6]; 63 g ai/ha): 100 | Post-emerge Herbicidal Activity IPOHE ([6]; 250 g ai/ha): 100 | Post-emerge Herbicidal Activity CASOB ([7]; 63 g ai/ha): 90 | Post-emerge Herbicidal Activity CASOB ([7]; 250 g ai/ha): 100 | Post-emerge Herbicidal Activity SETVI ([8]; 63 g ai/ha): 10 | Post-emerge Herbicidal Activity SETVI ([8]; 250 g ai/ha): 30 | Post-emerge Herbicidal Activity DIGSA ([9]; 63 g ai/ha): 10 | Post-emerge Herbicidal Activity DIGSA ([9]; 250 g ai/ha): 30 | Post-emerge Herbicidal Activity CHEAL ([10]; 63 g ai/ha): 100 | Post-emerge Herbicidal Activity CHEAL ([10]; 250 g ai/ha): 100 | Post-emerge Herbicidal Activity CORN ([11]; 63 g ai/ha): 25 | Post-emerge Herbicidal Activity CORN ([11]; 250 g ai/ha): 70 | Post-emerge Herbicidal Activity RICE ([12]; 63 g ai/ha): 60 | Post-emerge Herbicidal Activity RICE ([12]; 250 g ai/ha): 70 | Pre-emerge Herbicidal Activity AMARE ([13]; rate 63 g ai/ha): 100 | Pre-emerge Herbicidal Activity AMARE ([13]; rate 250 g ai/ha): 100 | Pre-emerge Herbicidal Activity ABUTH ([14]; rate 63 g ai/ha): 100 | Pre-emerge Herbicidal Activity ABUTH ([14]; rate 250 g ai/ha): 100 | Pre-emerge Herbicidal Activity ECHCG ([15]; rate 63 g ai/ha): 30 | Pre-emerge Herbicidal Activity ECHCG ([15]; rate 250 g ai/ha): 60 | Pre-emerge Herbicidal Activity IPOHE ([16]; rate 63 g ai/ha): 60 | Pre-emerge Herbicidal Activity IPOHE ([16]; rate 250 g ai/ha): 100 | Pre-emerge Herbicidal Activity SORHA ([17]; rate 63 g ai/ha): 20 | Pre-emerge Herbicidal Activity SORHA ([17]; rate 250 g ai/ha): 30 | Pre-emerge Herbicidal Activity CASOB ([18]; rate 63 g ai/ha): 100 | Pre-emerge Herbicidal Activity CASOB ([18]; rate 250 g ai/ha): 100 | Pre-emerge Herbicidal Activity SETVI ([19]; rate 63 g ai/ha): 50 | Pre-emerge Herbicidal Activity SETVI ([19]; rate 250 g ai/ha): 85 | Pre-emerge Herbicidal Activity DIGSA ([20]; rate 63 g ai/ha): 30 | Pre-emerge Herbicidal Activity DIGSA ([20]; rate 250 g ai/ha): 90 | Pre-emerge Herbicidal Activity CHEAL ([21]; rate 63 g ai/ha): 100 | Pre-emerge Herbicidal Activity CHEAL ([21]; rate 250 g ai/ha): 100

COc1c(Cl)cc(F)c(-n2c(=O)cc(C(F)(F)F)n(N)c2=O)c1NC(=O)C=Cc1ccccc1 [2-185]
phytotoxicity rating CORN (crop damage) ([1]; 63 g ai/ha): 0 | phytotoxicity rating CORN (crop damage) ([1]; 250 g ai/ha): 5 | phytotoxicity rating RICE (crop damage) ([2]; 63 g ai/ha): 20 | phytotoxicity rating RICE (crop damage) ([2]; 250 g ai/ha): 40 | ABUTH phytotoxicity rating ([3]; 63 g ai/ha): 100 | ABUTH phytotoxicity rating ([3]; 250 g ai/ha): 100 | ECHCG phytotoxicity rating ([4]; 63 g ai/ha): 0 | ECHCG phytotoxicity rating ([4]; 250 g ai/ha): 0 | AMARE phytotoxicity rating ([5]; 63 g ai/ha): 80 | AMARE phytotoxicity rating ([5]; 250 g ai/ha): 100 | IPOHE phytotoxicity rating ([6]; 63 g ai/ha): 60 | IPOHE phytotoxicity rating ([6]; 250 g ai/ha): 80 | CASOB phytotoxicity rating ([7]; 63 g ai/ha): 40 | CASOB phytotoxicity rating ([7]; 250 g ai/ha): 60 | SETVI phytotoxicity rating ([8]; 63 g ai/ha): 0 | SETVI phytotoxicity rating ([8]; 250 g ai/ha): 20 | DIGSA phytotoxicity rating ([9]; 63 g ai/ha): 0 | DIGSA phytotoxicity rating ([9]; 250 g ai/ha): 10 | CHEAL phytotoxicity rating ([10]; 63 g ai/ha): 70 | CHEAL phytotoxicity rating ([10]; 250 g ai/ha): 100 | CORN phytotoxicity rating (crop damage) ([11]; 63 g ai/ha): 0 | CORN phytotoxicity rating (crop damage) ([11]; 250 g ai/ha): 5 | RICE phytotoxicity rating (crop damage) ([12]; 63 g ai/ha): 20 | RICE phytotoxicity rating (crop damage) ([12]; 250 g ai/ha): 35 | phytotoxicity rating AMARE ([13]; 63 g ai/ha): 100 | phytotoxicity rating AMARE ([13]; 250 g ai/ha): 100 | phytotoxicity rating ABUTH ([14]; 63 g ai/ha): 90 | phytotoxicity rating ABUTH ([14]; 250 g ai/ha): 100 | phytotoxicity rating ECHCG ([15]; 63 g ai/ha): 10 | phytotoxicity rating ECHCG ([15]; 250 g ai/ha): 10 | phytotoxicity rating IPOHE ([16]; 63 g ai/ha): 60 | phytotoxicity rating IPOHE ([16]; 250 g ai/ha): 60 | phytotoxicity rating SORHA ([17]; 63 g ai/ha): 20 | phytotoxicity rating SORHA ([17]; 250 g ai/ha): 20 | phytotoxicity rating CASOB ([18]; 63 g ai/ha): 0 | phytotoxicity rating CASOB ([18]; 250 g ai/ha): 60 | phytotoxicity rating SETVI ([19]; 63 g ai/ha): 30 | phytotoxicity rating SETVI ([19]; 250 g ai/ha): 50 | phytotoxicity rating DIGSA ([20]; 63 g ai/ha): 20 | phytotoxicity rating DIGSA ([20]; 250 g ai/ha): 40 | phytotoxicity rating CHEAL ([21]; 63 g ai/ha): 100 | phytotoxicity rating CHEAL ([21]; 250 g ai/ha): 100
